# Results reported in patent US8691210B2, “Methods and compositions for generating an immune response by inducing CD40 and pattern recognition receptors and adaptors thereof” (priority 2006, dated 2014).
# B1: CD40L: CD40 ligand (Alexis Biochemicals) (protein)
# chain: GDQNPQIAAHVISEASSKTTSVLQWAEKGYYTMSNNLVTLENGKQLTVKRQGLYYIYAQVTFCSNREASSQAPFIASLCLKSPGRFERILLRAANTHSSAKPCGQQSIHLGGVFELQPGASVFVNVTDPSQVSHGTGFTSFGLLKL
# How the values were obtained:
# [1] = tested on: BMDCs; experiment: In vitro serum-starvation DC survival assay (propidium iodide); assay type: cell-based, murine; conditions: relative to non-transduced DCs treated with CD40L or untreated BMDCs
# From the text: In addition to DC activation state, DC longevity is another critical variable that influences the generation of T cell-dependent immunity. In fact, CTL-mediated killing of DCs is considered to be a significant mechanism for modulating immune responses while protecting the host from autoimmune pathologies^55,56. Other work has established that CD40 stimulation of DCs prolongs their survival by a variety of mechanisms, including upregulation of the anti-apoptotic protein bcl-XL and the granzyme B inhibitor, Spi-6^57,58. The effects of iCD40 relative to CD40L on DC survival were compared in an in vitro serum-starvation culture assay (FIG. 11E).
# [2] = tested on: human SOCS1; experiment: Real time Q-PCR assay for human SOCS1 in DCs; assay type: cell-based
# From the text: Total RNA was purified and reverse transcribed with random hexamers using SuperScript II RTase (Invitrogen, Carlsbad, Calif.). mRNA levels were quantified in DCs by subjecting cDNA to TaqMan PCR analysis using the GeneAmp 5700 Sequence Detection System (Applied Biosystems, Foster City, Calif.). Pre-developed sequence detection reagents (Applied Biosystems) specific for human SOCS1 and 18S rRNA, including forward and reverse primers as well as a fluorogenic TaqMan FAM-labeled hybridization probe, were supplied as mixtures and were used at 1 microliter/20 microliter PCR. Samples were run in duplicates. The level of SOCS1 expression in each sample was normalized to the level of 18S rRNA from the same sample using the comparative 2-ΔΔCT method^21.
# [3] = tested on: human DCs; experiment: Cytokine (IL-12p70, IL-6) ELISA of human DC culture supernatants; assay type: cell-based; conditions: iCD40-DCs stimulated with the named TLR ligand
# Protocol: Approximately 2×10^6 cells/ml were cultured in a 24-well dish and transduced with adenoviruses at 10,000 viral particle (vp)/cell (−160 MOI) for 90 min at 37° C. and 5% CO2. Immediately after transduction DCs were stimulated with MPL, FSL-1, Pam3CSK4 (InvivoGen, San Diego, Calif.), LPS (Sigma-Aldrich, St. Louis, Mo.), AP20187 (kind gift from ARIAD Pharmaceuticals, Cambridge, Mass.) or maturation cocktail (MC), containing 10 ng/ml TNF-alpha, 10 ng/ml IL-1beta, 150 ng/ml IL-6 (R&D Systems, Minneapolis, Minn.) and 1 micrograms/ml of PGE2 (Cayman Chemicals, Ann Arbor, Mich.). In T cell assays DCs were pulsed with 50 micrograms/ml of PSMA or MAGE 3 peptide 24 hours before and after adenoviral transduction.
# Cell surface staining was done with fluorochrome-conjugated monoclonal antibodies (BD Biosciences, San Diego, Calif.). Cells were analyzed on a FACSCalibur cytometer (BD Biosciences, San Jose, Calif.). Cytokines were measured in culture supernatants using enzyme-linked immunosorbent assay kits for human IL-6 and IL-12p70 (BD Biosciences).
# [4] = tested on: BMDCs; experiment: BMDC survival (GM-CSF deprivation, wortmannin); assay type: cell-based
# Protocol: To further test the hypothesis that PI3K and Akt are common regulators for innate and acquired immune signal-mediated DC survival, various concentrations (0.05-5 μM) of PI3K inhibitor, wortmannin, in BMDCs treated with LPS or anti-CD40 were tested.
# To more directly investigate the role of Akt in PI3K-mediated DC survival, a previously described constitutively active Akt (M-Akt) allele, consisting of full length Akt, targeted to intracellular membranes with a myristoylation-targeting sequence from c-Src^62 was used. […] Therefore, to test the possibility that the efficient lipid raft localization of Akt improve its functions, this construct was compared with several distinct deregulated Akt alleles, containing myristoylation-targeting sequences from Src family kinases Src, Fyn and Lck fused to AAkt. The pleckstrin homology (PH) domain (residues 1-102) was removed to further improve Akt activity when PI3K is limiting^64. […] Therefore, MF-ΔAkt was used in subsequent experiments. Moreover, for improved expression in BMDCs, replication-defective adenovirus, Ad-MF-ΔAkt, expressing functionally optimized Akt was generated. Consistently, Ad-MF-ΔAkt led to higher GSK3α/β phosphorylation in BMDCs, compared with Ad-M-Akt^62. […] Thus, functionally optimized Akt almost completely suppresses induction of DC death by PI3K (but not Src) inhibition. […]
# [5] = tested on: primary bone marrow-derived DCs (BMDCs); experiment: iCD40 functionality in primary BMDCs (surface markers, intracellular IL-12 staining); assay type: cell-based, murine; conditions: stimulation with LPS and CD40L
# From the text: A helper-dependent, […] adenoviral vector, named Ad-iCD40-GFP, was engineered to express both iCD40 and EGFP under the control of the CMV early/immediate promoter/enhancer. Ad-iCD40-GFP successfully transduced and expressed the iCD40 transgene, as well as the EGFP marker, in purified BMDCs (FIG. 11A,B). […] The effects of Ad-iCD40-GFP on BMDCs using intracellular cytokine staining to evaluate DC expression of the TH1-polarizing cytokine, IL-12 was then investigated. These findings confirmed numerous previous reports that an empty adenoviral vector can contribute to background fluorescence readings by stimulating the production of low levels of this cytokine. (FIG. 11D)^53. […] However, AP20187 exposure of these iCD40-expressing DCs managed to reproducibly overcome these cumulative effects to further increase the percentage of IL-12′ DCs.
# [6] = tested on: Naive CD4+CD45RA+ T cells; experiment: Polarization of naive T helper cells; assay type: cell-based, human; conditions: tetanus toxoid-pulsed DCs, restimulation with TTp30
# From the text: Naïve CD4+CD45RA+ T-cells from HLA-DR11.5-positive donors (genotyped using FASTYPE HLA-DNA SSP typing kit; BioSynthesis, Lewisville, Tex.) were isolated by negative selection using naïve CD4+ T cell isolation kit (Miltenyi Biotec, Auburn, Calif.). T cells were stimulated with autologous DCs pulsed with tetanus toxoid (5 FU/ml) and stimulated with various stimuli at a stimulator to responder ratio of 1:10. After 7 days, T cells were restimulated with autologous DCs pulsed with the HLA-DR11.5-restricted helper peptide TTp30 and transduced with adenovector Ad-iCD40. Cells were stained with PE-anti-CD4 Ab (BD Biosciences), fixed and permeabilized using BD Cytofix/Cytoperm kit (BD Biosciences), then stained with hIFN-gamma mAb (eBioscience, San Diego, Calif.) and analyzed by flow cytometry. Supernatants were analyzed using human TH1/TH2 BD Cytometric Bead Array Flex Set on BD FACSArray Bioanalyzer (BD Biosciences).
Molecule,IL12-p70 induced by TLR ligand in iCD40-DCs [3],Time of peak IL-12p70/p40 synthesis [5] [h],further results
CC[C@H](C(=O)N1CCCC[C@H]1C(=O)O[C@H](CCc1ccc(OC)c(OC)c1)c1cccc(OCC(=O)NCC(CNC(=O)COc2cccc([C@@H](CCc3ccc(OC)c(OC)c3)OC(=O)[C@@H]3CCCCN3C(=O)[C@@H](CC)c3cc(OC)c(OC)c(OC)c3)c2)CN(C)C)c1)c1cc(OC)c(OC)c(OC)c1 [AP20187],,,DC longevity [1]: even further enhanced this survival effect
Lipopolysaccharide [LPS],synergized with CD40 signaling,8,SOCS1 induction [2]: up-regulated SOCS1 expression; Protection against GM-CSF deprivation-mediated DC death [4]: protect against GM-CSF deprivation-mediated DC death
FSL-1,only low levels,,
Pam3 CSK4,only low levels,,
monophosphoryl lipid A [MPL],synergized with CD40 signaling,,IFN-gamma production in CD4+ T cells [6]: not induced
B1,,8,
